Experimental data taken from patent US9206219B2, “17-hydroxy-17-pentafluorethyl-estra-4,9(10)-dien-11-aryl derivatives, methods for the production thereof and the use thereof for treating diseases” (Bayer Intellectual Property GmbH, priority 2009, dated 2015).

How the values were obtained:
[1] = target: T1, human progesterone receptor B (Homo sapiens, UniProt P06401); experiment: Progesterone receptor-antagonistic action in stably transfected SK-N-MC cells, MMTV-LUC reporter (PR-B); format: cell-based; details: antagonistic potency vs 0.1 nmol/l promegestone, 24 hours
T1 construct: expressed in transfected cells; host or cells: SK-N-MC human neuroblastoma cells, stably transfected with pRChPR-B-neo and pMMTV-LUC
T1 sequence (P06401 1-933): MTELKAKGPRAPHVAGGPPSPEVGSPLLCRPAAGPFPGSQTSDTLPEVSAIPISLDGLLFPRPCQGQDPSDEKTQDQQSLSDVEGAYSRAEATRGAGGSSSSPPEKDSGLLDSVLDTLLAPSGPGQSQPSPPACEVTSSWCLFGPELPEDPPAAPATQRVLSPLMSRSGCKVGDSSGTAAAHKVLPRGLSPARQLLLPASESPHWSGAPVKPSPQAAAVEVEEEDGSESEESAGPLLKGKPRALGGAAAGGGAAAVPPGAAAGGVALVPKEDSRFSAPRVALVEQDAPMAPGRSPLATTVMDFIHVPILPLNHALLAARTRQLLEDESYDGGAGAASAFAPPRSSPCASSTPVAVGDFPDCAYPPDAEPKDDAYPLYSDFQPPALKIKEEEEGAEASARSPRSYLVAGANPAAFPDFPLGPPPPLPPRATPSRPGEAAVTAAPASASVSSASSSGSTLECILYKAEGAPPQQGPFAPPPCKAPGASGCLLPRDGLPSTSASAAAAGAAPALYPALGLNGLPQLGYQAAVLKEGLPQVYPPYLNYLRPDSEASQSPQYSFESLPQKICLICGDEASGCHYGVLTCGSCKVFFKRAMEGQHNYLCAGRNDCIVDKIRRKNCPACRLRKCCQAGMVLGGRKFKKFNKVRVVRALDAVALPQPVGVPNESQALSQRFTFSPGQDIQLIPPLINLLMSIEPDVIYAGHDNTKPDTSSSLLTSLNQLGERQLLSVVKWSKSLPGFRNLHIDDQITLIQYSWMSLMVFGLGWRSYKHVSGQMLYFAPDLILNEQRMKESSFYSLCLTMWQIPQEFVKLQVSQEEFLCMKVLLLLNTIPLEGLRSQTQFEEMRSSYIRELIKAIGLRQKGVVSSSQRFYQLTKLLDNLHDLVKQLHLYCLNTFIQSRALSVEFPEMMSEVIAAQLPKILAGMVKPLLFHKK
Description: (§1) Progesterone Receptor-Antagonistic Action in Stable Transfectants of Human Neuroblastoma Cells (SK-N-MC Cells) with the Human Progesterone A or Progesterone B Receptor and an MN-LUC Reporter Construct
(§2) SK-N-MC cells (human neuroblastoma cells) which have been stably transfected with plasmids expressing the human progesterone receptor B (pRChPR-B-neo) or the human progesterone receptor A (pRChPR-A-neo) and a reporter construct (pMMTV-LUC) were incubated for 24 hours either in the absence (negative control) or in the presence of ascending amounts of the particular test compound (0.01 nmol/l, 0.1 nmol/l, 1 nmol/l, 10 nmol/l, 100 nmol/l and […]), in order to determine the agonistic efficacy. As a positive control of the reporter gene induction, the cells were treated with the synthetic gestagen promegestone (0.01 nmol/l, 0.1 nmol/l, 1 nmol/l, 10 nmol/l, 100 nmol/l and […]). To determine the antagonistic activity, the cells were treated with 0.1 nmol/l promegestone and additionally with ascending amounts of the particular test compound (0.01 nmol/l, 0.1 nmol/l, 1 nmol/l, 10 nmol/l, 100 nmol/l and […]). The activity of the reporter gene LUC (LUC=luciferase) was determined in the cell lysates and measured as RLU (relative light units). All measurements are reported as % efficacy and as EC50 and IC50 concentrations.

[2] = target: T2, human progesterone receptor A (Homo sapiens, UniProt P06401); experiment: Progesterone receptor-antagonistic action in stably transfected SK-N-MC cells, MMTV-LUC reporter (PR-A); format: cell-based; details: antagonistic potency vs 0.1 nmol/l promegestone, 24 hours
T2 construct: expressed in transfected cells; host or cells: SK-N-MC human neuroblastoma cells, stably transfected with pRChPR-A-neo and pMMTV-LUC
T2 sequence (P06401 1-769 isoform P06401-2): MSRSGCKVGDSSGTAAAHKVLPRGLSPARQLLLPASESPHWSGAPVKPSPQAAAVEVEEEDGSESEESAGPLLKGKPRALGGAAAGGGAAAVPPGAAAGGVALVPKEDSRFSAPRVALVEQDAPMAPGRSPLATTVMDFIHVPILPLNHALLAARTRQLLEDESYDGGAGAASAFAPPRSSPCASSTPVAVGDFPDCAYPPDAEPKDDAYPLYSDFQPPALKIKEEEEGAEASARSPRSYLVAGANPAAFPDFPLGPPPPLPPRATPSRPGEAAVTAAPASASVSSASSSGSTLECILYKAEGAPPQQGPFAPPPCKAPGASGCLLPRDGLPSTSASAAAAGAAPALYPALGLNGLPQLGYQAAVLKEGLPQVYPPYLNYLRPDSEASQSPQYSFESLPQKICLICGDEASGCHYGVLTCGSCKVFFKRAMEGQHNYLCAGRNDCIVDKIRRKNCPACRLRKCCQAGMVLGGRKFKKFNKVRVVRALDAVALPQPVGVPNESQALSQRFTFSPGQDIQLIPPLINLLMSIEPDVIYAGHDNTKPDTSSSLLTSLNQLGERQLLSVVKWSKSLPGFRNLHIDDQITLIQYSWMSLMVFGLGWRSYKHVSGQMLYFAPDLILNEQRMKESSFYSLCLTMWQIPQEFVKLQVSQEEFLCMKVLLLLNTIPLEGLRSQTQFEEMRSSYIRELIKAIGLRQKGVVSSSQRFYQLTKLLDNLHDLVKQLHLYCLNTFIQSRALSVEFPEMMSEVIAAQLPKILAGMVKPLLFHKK
Description: as §1, §2

Compound	IC50 [1]	IC50 [2]
CC(C)NC(=O)NCc1ccc([C@H]2C[C@@]3(C)[C@@H](CC[C@@]3(O)C(F)(F)C(F)(F)F)[C@@H]3CCC4=CC(=O)CCC4=C32)cc1 [Example 19, 1-isopropyl-3-[4-((8S,11R,13S,14S,17S)-17-hydroxy-13-methyl-3-oxo-17-pentafluoroethyl-2,3,6,7,8,11,12,13,14,15,16,17-dodecahydro-1H-cyclopenta[a]phenanthren-11-yl)benzyl]urea]	700 pM	600 pM
CCOC(=O)CCNC(=O)NCc1ccc([C@H]2C[C@@]3(C)[C@@H](CC[C@@]3(O)C(F)(F)C(F)(F)F)[C@@H]3CCC4=CC(=O)CCC4=C32)cc1 [Example 22, 3-{3-[4-((8S,11R,13S,14S,17S)-17-hydroxy-13-methyl-3-oxo-17-pentafluoroethyl-2,3,6,7,8,11,12,13,14,15,16,17-dodecahydro-1H-cyclopenta[a]phenanthren-11-yl)benzyl]ureido}propionic acid ethyl ester]	600 pM	500 pM
CCOC(=O)c1ccc(NC(=O)NCc2ccc([C@H]3C[C@@]4(C)[C@@H](CC[C@@]4(O)C(F)(F)C(F)(F)F)[C@@H]4CCC5=CC(=O)CCC5=C43)cc2)cc1 [Example 36, 4-{3-[4-((8S,11R,13S,14S,17S)-17-hydroxy-13-methyl-3-oxo-17-pentafluoroethyl-2,3,6,7,8,11,12,13,14,15,16,17-dodecahydro-1H-cyclopenta[a]phenanthren-11-yl)benzyl]ureido}benzoic acid ethyl ester]	800 pM	700 pM
CC(C)(C)NC(=O)NCc1ccc([C@H]2C[C@@]3(C)[C@@H](CC[C@@]3(O)C(F)(F)C(F)(F)F)[C@@H]3CCC4=CC(=O)CCC4=C32)cc1 [Example 20, 1-tert-butyl-3-[4-((8S,11R,13S,14S,17S)-17-hydroxy-13-methyl-3-oxo-17-pentafluoroethyl-2,3,6,7,8,11,12,13,14,15,16,17-dodecahydro-1H-cyclopenta[a]phenanthren-11-yl)benzyl]urea]	1000 pM	700 pM
CC1(c2ccc([C@H]3C[C@@]4(C)[C@@H](CC[C@@]4(O)C(F)(F)C(F)(F)F)[C@@H]4CCC5=CC(=O)CCC5=C43)cc2)COC1 [Example 40, (8S,11R,13S,14S,17S)-17-hydroxy-13-methyl-11-[4-(3-methyloxetan-3-yl)phenyl]-17-pentafluoroethyl-1,2,6,7,8,11,12,13,14,15,16,17-dodecahydrocyclopenta[a]phenanthren-3-one]	50 pM	10 pM
C[C@]12C[C@H](c3ccc(COC(=O)Nc4ccc(F)cc4)cc3)C3=C4CCC(=O)C=C4CC[C@H]3[C@@H]1CC[C@@]2(O)C(F)(F)C(F)(F)F [Example 49, (4-fluorophenyl)carbamic acid 4-((8S,11R,13S,14S,17S)-17-hydroxy-13-methyl-3-oxo-17-pentafluoroethyl-2,3,6,7,8,11,12,13,14,15,16,17-dodecahydro-1H-cyclopenta[a]phenanthren-11-yl)benzyl ester]	100 pM	90 pM
C[C@]12C[C@H](c3ccc(CNC(=O)NCC(=O)O)cc3)C3=C4CCC(=O)C=C4CC[C@H]3[C@@H]1CC[C@@]2(O)C(F)(F)C(F)(F)F [Example 26, {3-[4-((8S,11R,13S,14S,17S)-17-hydroxy-13-methyl-3-oxo-17-pentafluoroethyl-2,3,6,7,8,11,12,13,14,15,16,17-dodecahydro-1H-cyclopenta[a]phenanthren-11-yl)benzyl]ureido}acetic acid]	64000 pM	24000 pM
CC(=O)c1cccc([C@H]2C[C@@]3(C)[C@@H](CC[C@@]3(O)C(F)(F)C(F)(F)F)[C@@H]3CCC4=CC(=O)CCC4=C32)c1 [Example 10, (8S,11R,13S,14S,17S)-11-(3-acetylphenyl)-17-hydroxy-13-methyl-17-pentafluoroethyl-1,2,6,7,8,11,12,13,14,15,16,17-dodecahydrocyclopenta[a]phenanthren-3-one]	3000 pM	5000 pM
C[C@]12C[C@H](c3cccc(C4CC4)c3)C3=C4CCC(=O)C=C4CC[C@H]3[C@@H]1CC[C@@]2(O)C(F)(F)C(F)(F)F [Example 12, (8S,11R,13S,14S,17S)-11-(3-cyclopropylphenyl)-17-hydroxy-13-methyl-17-pentafluoroethyl-1,2,6,7,8,11,12,13,14,15,16,17-dodecahydrocyclopenta[a]phenanthren-3-one]	9000 pM	4000 pM
CCOC(=O)c1ccc(NC(=O)OCc2ccc([C@H]3C[C@@]4(C)[C@@H](CC[C@@]4(O)C(F)(F)C(F)(F)F)[C@@H]4CCC5=CC(=O)CCC5=C43)cc2)cc1 [Example 52, 4-[4-((8S,11R,13S,14S,17S)-17-hydroxy-13-methyl-3-oxo-17-pentafluoroethyl-2,3,6,7,8,11,12,13,14,15,16,17-dodecahydro-1H-cyclopenta[a]phenanthren-11-yl)benzyloxycarbonylamino]benzoic acid ethyl ester]	100 pM	100 pM
C[C@]12C[C@H](c3ccc(COC(=O)Nc4ccc(N5CCCCC5)cc4)cc3)C3=C4CCC(=O)C=C4CC[C@H]3[C@@H]1CC[C@@]2(O)C(F)(F)C(F)(F)F [Example 45, (4-piperidin-1-ylphenyl)carbamic acid 4-((8S,11R,13S,14S,17S)-17-hydroxy-13-methyl-3-oxo-17-pentafluoroethyl-2,3,6,7,8,11,12,13,14,15,16,17-dodecahydro-1H-cyclopenta[a]phenanthren-11-yl)benzyl ester]	90 pM	20 pM
CC1(c2cccc([C@H]3C[C@@]4(C)[C@@H](CC[C@@]4(O)C(F)(F)C(F)(F)F)[C@@H]4CCC5=CC(=O)CCC5=C43)c2)CC1 [Example 13, (8S,11R,13S,14S,17S)-17-hydroxy-13-methyl-11-[3-(1-methylcyclopropyl)phenyl]-17-pentafluoroethyl-1,2,6,7,8,11,12,13,14,15,16,17-dodecahydrocyclopenta[a]phenanthren-3-one]	7000 pM	4000 pM
C=CCNC(=O)OCc1ccc([C@H]2C[C@@]3(C)[C@@H](CC[C@@]3(O)C(F)(F)C(F)(F)F)[C@@H]3CCC4=CC(=O)CCC4=C32)cc1 [Example 43, allylcarbamic acid 4-((8S,11R,13S,14S,17S)-17-hydroxy-13-methyl-3-oxo-17-pentafluoroethyl-2,3,6,7,8,11,12,13,14,15,16,17-dodecahydro-1H-cyclopenta[a]phenanthren-11-yl)benzyl ester]	100 pM	100 pM
